Data on 54 molecules can be found in ChEMBL document CHEMBL5393453, “Compositions and methods of using the same for treatment of neurodegenerative and mitochondrial disease” (2021).

Series [1] is described as follows: Cytotoxicity against human HeLa cells expressing YFP parkin assessed as highest safety dose by DAPI staining analysis. It counts as toxicity, cell-based. The conditions noted are these: read-out: Activity.
A short description of series [2]: Cytotoxicity against human HeLa cells expressing YFP parkin treated with FCCP/ oligomycin assessed as highest safety dose by DAPI staining analysis. It counts as toxicity, cell-based. The following applies: read-out: Activity.

Turning to `C[C@@H]1CN([C@H]2COc3cc(F)ccc3[C@@H]2Nc2ncnc3[nH]c(C(F)(F)F)cc23)C[C@H](C)O1` (single isomer, unassigned), the MNTC in series [1] amounted to 25 µM; in series [2], 9.9 µM.
Taken in the same sequence, the figures for `COC1CN([C@H]2COc3ccccc3[C@@H]2Nc2ncnc3[nH]c(C4CC4)cc23)C1` were 25 µM and 25 µM.
As to `Fc1ccc2c(c1)CC[C@H](N1C[C@@H]3COC[C@H]3C1)[C@H]2Nc1ncnc2[nH]c(C3CC3)cc12`, the MNTC in series [1] and in series [2] was 25 µM in each case.
For `C[C@@H]1CN([C@H]2COc3ccccc3[C@@H]2Nc2ncnc3[nH]c(C(F)(F)F)cc23)C[C@H](C)O1` (single isomer, unassigned), the MNTC in series [1] stood at 25 µM; in series [2], 7.1 µM.
The matching figures for `CO[C@H]1CCN([C@H]2COc3ccccc3[C@@H]2Nc2ncnc3[nH]c(C4CC4)cc23)C1`: 25 µM and 1.1 µM.
As for `c1ccc2c(c1)CC[C@H](N1CCOCC1)[C@H]2Nc1ncnc2[nH]c(C3CC3)cc12`, the MNTC amounted to 25 µM in series [1] and 2.8 µM in series [2].
Taken in the same sequence, the figures for `FC(F)(F)c1cc2c(N[C@H]3c4ccccc4OC[C@@H]3C3CCOCC3)ncnc2[nH]1` (single isomer, unassigned) were 25 µM and 25 µM.
Regarding `C[C@H]1CN([C@@H]2COc3ccccc3[C@H]2Nc2ncnc3[nH]c(C(F)(F)F)cc23)CCO1`, the MNTC in series [1] and in series [2] was 19.4 µM in each case.
As to `c1ccc2c(c1)CC[C@H](N1C[C@H]3COC[C@H]3C1)[C@H]2Nc1ncnc2[nH]c(C3CC3)cc12`, the MNTC stood at 25 µM in series [1] and 0.9 µM in series [2].
As to `Fc1ccc2c(c1)CC[C@H](N1C[C@H]3COC[C@@H]3C1)[C@H]2Nc1ncnc2[nH]c(C3CC3)cc12`, the results for the MNTC in series [1] and in series [2] were 25 µM and 11.7 µM, respectively.
As for `c1ccc2c(c1)CC[C@@H](N1CCOCC1)[C@@H]2Nc1ncnc2[nH]c(C3CC3)cc12` (single isomer, unassigned), the MNTC in series [1] and in series [2] was 25 µM throughout.
For `FC(F)(F)c1cc2c(N[C@@H]3c4ccccc4OC[C@@H]3C3CCCOC3)ncnc2[nH]1` (single isomer, unassigned), the MNTC in series [1] and in series [2] was 25 µM throughout.
For `FC(F)(F)c1cc2c(NC3c4ccccc4OCC3N3C[C@@H]4COC[C@H]4C3)ncnc2[nH]1` (stereo partly drawn), the MNTC in series [1] and in series [2] was 25 µM throughout.
In the case of `c1ccc2c(c1)OC[C@@H](C1CCOCC1)[C@@H]2Nc1ncnc2[nH]c(C3CC3)cc12`, the MNTC in series [1] came to 25 µM; in series [2] it was 3.2 µM.
`Fc1ccc2c(c1)CC[C@H](N1C[C@H]3COC[C@@H]3C1)[C@H]2Nc1ncnc2[nH]c(C(F)(F)F)cc12`: the values for the MNTC in series [1] and in series [2] were 25 µM and 9.1 µM, respectively.
`COC[C@H]1CCN([C@H]2COc3ccccc3[C@@H]2Nc2ncnc3[nH]c(C(F)(F)F)cc23)C1` (single isomer, unassigned): the MNTC in series [1] is 25 µM; in series [2] it was 4.5 µM.
Consider `FC(F)(F)c1cc2c(N[C@@H]3c4ccccc4CC[C@H]3N3C[C@H]4COC[C@H]4C3)ncnc2[nH]1` (single isomer, unassigned), for which the MNTC came out at 25 µM in series [1] and 9.1 µM in series [2].
Regarding `c1ccc2c(c1)CC[C@H](N1C[C@@H]3COC[C@H]3C1)[C@H]2Nc1ncnc2[nH]c(C3CC3)cc12`, the MNTC turned out to be 25 µM in series [1] and 3 µM in series [2].
The matching figures for `Fc1ccc2c(c1)OC[C@@H](N1C[C@H]3COC[C@H]3C1)[C@@H]2Nc1ncnc2[nH]c(C3CC3)cc12`: 25 µM and 16 µM.
In the case of `FC(F)(F)c1cc2c(N[C@H]3c4ccccc4OC[C@H]3C3CCCOC3)ncnc2[nH]1` (mixture of isomers), the MNTC in series [1] and in series [2] was 25 µM throughout.
For `COC[C@@H]1CCN([C@H]2COc3ccccc3[C@@H]2Nc2ncnc3[nH]c(C(F)(F)F)cc23)C1` (single isomer, unassigned), the MNTC in series [1] came to 25 µM; in series [2] it was 3.3 µM.
Consider `C[C@H]1CN([C@H]2COc3ccccc3[C@@H]2Nc2ncnc3[nH]c(C4CC4)cc23)CCO1`, for which the MNTC in series [1] is 25 µM; in series [2] it was 15.1 µM.
On to `C[C@@H]1CN([C@H]2CCc3ccccc3[C@@H]2Nc2ncnc3[nH]c(C(F)(F)F)cc23)CCO1` (single isomer, unassigned), for which the MNTC in series [1] is 25 µM; in series [2] it was 3.7 µM.
Take `C[C@H]1CN([C@H]2CCc3ccccc3[C@@H]2Nc2ncnc3[nH]c(C4CC4)cc23)CCO1` (single isomer, unassigned): the values for the MNTC in series [1] and in series [2] were 25 µM and 3.5 µM, respectively.
Regarding `C[C@H]1CN([C@@H]2COc3cc(F)ccc3[C@H]2Nc2ncnc3[nH]c(C4CC4)cc23)CCO1`, the MNTC in series [1] is 25 µM; in series [2], 7.4 µM.
Turning to `C[C@@H]1CN([C@H]2COc3cc(F)ccc3[C@@H]2Nc2ncnc3[nH]c(C4CC4)cc23)C[C@H](C)O1` (single isomer, unassigned), the MNTC amounted to 25 µM in series [1] and 2 µM in series [2].
Taken in the same sequence, the figures for `COC[C@@H]1CCN(C2COc3ccccc3C2Nc2ncnc3[nH]c(C4CC4)cc23)C1` (single isomer, unassigned) were 25 µM and 1.4 µM.
As to `FC(F)(F)c1cc2c(N[C@@H]3c4ccccc4OC[C@H]3C3CCOCC3)ncnc2[nH]1` (single isomer, unassigned), the results for the MNTC in series [1] and in series [2] were 25 µM and 4.7 µM, respectively.
As to `C[C@@H]1CN([C@@H]2COc3ccccc3[C@H]2Nc2ncnc3[nH]c(C4CC4)cc23)CCO1`, the values for the MNTC in series [1] and in series [2] were 25 µM and 1.7 µM, respectively.
Turning to `FC(F)(F)c1cc2c(N[C@H]3c4ccccc4OC[C@@H]3N3C[C@H]4COC[C@H]4C3)ncnc2[nH]1`, the MNTC in series [1] and in series [2] was 25 µM throughout.
As to `c1ccc2c(c1)CC[C@H](C1CCOCC1)[C@H]2Nc1ncnc2[nH]c(C3CC3)cc12` (single isomer, unassigned), the MNTC in series [1] worked out at 25 µM; in series [2], 2.1 µM.
The matching figures for `COC1CN([C@H]2COc3ccccc3[C@@H]2Nc2ncnc3[nH]c(C(F)(F)F)cc23)C1`: 8.3 µM and 8.3 µM.
The matching figures for `FC(F)(F)c1cc2c(NC3c4ccccc4OCC3N3C[C@H]4COC[C@@H]4C3)ncnc2[nH]1` (stereo partly drawn): 25 µM and 25 µM.
Taken in the same sequence, the figures for `[2H]C([2H])([2H])OC1CN([C@H]2COc3ccccc3[C@@H]2Nc2ncnc3[nH]c(C(F)(F)F)cc23)C1` were 25 µM and 19.8 µM.
As for `CO[C@H]1CCN([C@H]2COc3ccccc3[C@@H]2Nc2ncnc3[nH]c(C(F)(F)F)cc23)C1`, the MNTC was found to be 25 µM in series [1] and 1.1 µM in series [2].
On to `C[C@@H]1CN([C@H]2COc3cc(F)ccc3[C@@H]2Nc2ncnc3[nH]c(C4CC4)cc23)CCO1`, for which the values for the MNTC in series [1] and in series [2] were 16.7 µM and 2 µM, respectively.
On to `C[C@@H]1CN([C@@H]2COc3cc(F)ccc3[C@H]2Nc2ncnc3[nH]c(C4CC4)cc23)C[C@H](C)O1`, for which the results for the MNTC in series [1] and in series [2] were 25 µM and 1.2 µM, respectively.
With `C[C@@H]1CN([C@H]2CCc3ccccc3[C@@H]2Nc2ncnc3[nH]c(C4CC4)cc23)CCO1` (single isomer, unassigned), the figures for the MNTC in series [1] and in series [2] were 25 µM and 1.3 µM, respectively.
Regarding `Fc1ccc2c(c1)OC[C@H](N1C[C@@H]3COC[C@H]3C1)[C@H]2Nc1ncnc2[nH]c(C3CC3)cc12` (single isomer, unassigned), the values for the MNTC in series [1] and in series [2] were 25 µM and 13.9 µM, respectively.
`C[C@@H]1CN([C@@H]2COc3ccccc3[C@H]2Nc2ncnc3[nH]c(C(F)(F)F)cc23)CCO1`: the values for the MNTC in series [1] and in series [2] were 25 µM and 9.7 µM, respectively.
`C[C@@H]1CN([C@@H]2COc3cc(F)ccc3[C@H]2Nc2ncnc3[nH]c(C(F)(F)F)cc23)C[C@H](C)O1`: the MNTC in series [1] worked out at 25 µM; in series [2] it was 2.2 µM.
Taken in the same sequence, the figures for `Fc1ccc2c(c1)CC[C@@H](N1C[C@H]3COC[C@H]3C1)[C@@H]2Nc1ncnc2[nH]c(C(F)(F)F)cc12` (single isomer, unassigned) were 8.3 µM and 8.3 µM.
With `C[C@@H]1CN([C@H]2COc3ccccc3[C@@H]2Nc2ncnc3[nH]c(C4CC4)cc23)C[C@H](C)O1` (single isomer, unassigned), the results for the MNTC in series [1] and in series [2] were 25 µM and 2.3 µM, respectively.
For the molecule `CO[C@@H]1CCN([C@H]2COc3ccccc3[C@@H]2Nc2ncnc3[nH]c(C(F)(F)F)cc23)C1`, the MNTC in series [1] turned out to be 25 µM; in series [2] it was 3.4 µM.
As to `Fc1ccc2c(c1)OC[C@H](N1CCOCC1)[C@H]2Nc1ncnc2[nH]c(C3CC3)cc12`, the MNTC in series [1] was 25 µM.
Take `C[C@@H]1CN([C@@H]2CCc3ccccc3[C@H]2Nc2ncnc3[nH]c(C4CC4)cc23)C[C@H](C)O1` (single isomer, unassigned): in series [1], the MNTC is 25 µM.
On the same count and under the same terms, the figure for `C[C@@H]1COCCN1[C@H]1CCc2ccccc2[C@@H]1Nc1ncnc2[nH]c(C3CC3)cc12` (single isomer, unassigned) is 2.8 µM.
Still for that read-out and setting: the result for `c1ccc2c(c1)OC[C@@H](N1CCOCC1)[C@H]2Nc1ncnc2[nH]c(C3CC3)cc12` reads 25 µM; that for `C[C@@H]1CN([C@H]2COc3ccccc3[C@@H]2Nc2ncnc3[nH]c(C4CC4)cc23)CCO1`, 25 µM; that for `c1ccc2c(c1)OCC(N1CC3CCOC3C1)C2Nc1ncnc2[nH]c(C3CC3)cc12` (single isomer, unassigned), 25 µM.
Consider `c1ccc2c(c1)OC[C@H](N1C[C@H]3COC[C@H]3C1)[C@H]2Nc1ncnc2[nH]c(C3CC3)cc12` (single isomer, unassigned), for which the MNTC in series [1] was determined as 25 µM.
Turning to `C[C@@H]1CN([C@@H]2CCc3ccccc3[C@H]2Nc2ncnc3[nH]c(C(F)(F)F)cc23)CCO1` (single isomer, unassigned), the MNTC in series [1] turned out to be 25 µM.
For `CN1CCN([C@@H]2CCc3ccccc3[C@H]2Nc2ncnc3[nH]c(C(F)(F)F)cc23)CC1` (single isomer, unassigned), the MNTC in series [1] worked out at 25 µM.
As to `c1ccc2c(c1)CC[C@@H](N1C[C@H]3COC[C@@H]3C1)[C@@H]2Nc1ncnc2[nH]c(C3CC3)cc12`, in series [1], the MNTC is 25 µM.
